Data published in paper PMC10247784, “Physiological activation of human and mouse bitter taste receptors by bile acids” (Communications Biology, 2023).
Several values for one entry are separate records, joined by “and”; a condition that tells them apart may be missing. Equal entries are not always repeated.

Target: T1, human TAS2R4 (Homo sapiens, UniProt Q9NYW5)
T1 construct: expressed in transfected cells; host or cells: HEK293T-Gα16gust44
T1 sequence (Q9NYW5 1-299): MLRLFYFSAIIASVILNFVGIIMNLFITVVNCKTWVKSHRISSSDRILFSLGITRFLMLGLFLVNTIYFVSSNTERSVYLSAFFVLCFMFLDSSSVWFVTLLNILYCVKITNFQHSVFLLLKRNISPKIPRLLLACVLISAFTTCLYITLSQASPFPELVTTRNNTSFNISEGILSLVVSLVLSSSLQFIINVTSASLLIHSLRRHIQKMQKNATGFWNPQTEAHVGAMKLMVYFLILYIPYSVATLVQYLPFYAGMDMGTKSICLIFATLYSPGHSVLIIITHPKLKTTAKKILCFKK
Assay: Calcium imaging assay (FLIPR), HEK293T-Gα16gust44 cells transfected with human TAS2R4
Format: cell-based
How it was run: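 Calcium responses via FLIPR in receptor-transfected HEK293T-Gα16gust44 cells (Fluo-4-AM, 2.5 mM probenecid), after mock-signal subtraction and normalization to baseline and buffer (ΔF/F). Threshold concentration is the lowest dose differing from mock cells at p < 0.01 (Student's t-test), from three biological replicates in duplicate.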

## C[C@H](CCC(=O)NCCS(=O)(=O)O)[C@H]1CC[C@H]2[C@@H]3[C@H](O)C[C@@H]4C[C@H](O)CC[C@]4(C)[C@H]3C[C@H](O)[C@]12C [Taurocholic Acid, taurocholic acid]
TAS2R4, bile acids, mean
  Efficacy = maximal amplitude (ΔF/F): 0.1496
TAS2R4, bile acids, single replicates, listed as TCA
  Efficacy (maximal amplitude ΔF/F), individual data points: 0.127 and 0.1657 and 0.1561
TAS2R4, conc. 0,01 mM
  Δ F/F: 0.0134
TAS2R4, conc. 0,1 mM
  Δ F/F: 0.09538
TAS2R4, conc. 0,03 mM
  Δ F/F: 0.04001
TAS2R4, conc. 0,3 mM
  Δ F/F: 0.1496
TAS2R4, conc. 0,001 mM
  Δ F/F: 0.005857
TAS2R4, conc. 0,003 mM
  Δ F/F: 0.007034
Time (s) 0
  RLU, fluorescence trace: 0 RLU
Time (s) 2
  RLU, fluorescence trace: -24.6054 RLU
Time (s) 4
  RLU, fluorescence trace: 12.8274 RLU
Time (s) 6
  RLU, fluorescence trace: 3.789 RLU
Time (s) 8
  RLU, fluorescence trace: -20.122 RLU
Time (s) 12
  RLU, fluorescence trace: 7.77 RLU
Time (s) 14
  RLU, fluorescence trace: -34.8945 RLU
Time (s) 16
  RLU, fluorescence trace: -37.677 RLU
Time (s) 18
  RLU, fluorescence trace: -48.5281 RLU
Time (s) 18.766 (TCA, TLCA: 18.782)
  RLU, fluorescence trace: 30.085 RLU
Time (s) 20.781 (TCA, TLCA: 20.782)
  RLU, fluorescence trace: 9.231 RLU
Time (s) 22.781 (TCA, TLCA: 22.782)
  RLU, fluorescence trace: 3.151 RLU
Time (s) 24.781 (TCA, TLCA: 24.782)
  RLU, fluorescence trace: 34.1327 RLU
Time (s) 26.781 (TCA, TLCA: 26.782)
  RLU, fluorescence trace: 57.6073 RLU
Time (s) 28.781 (TCA, TLCA: 28.782)
  RLU, fluorescence trace: 122.11 RLU
Time (s) 30.781 (TCA, TLCA: 30.782)
  RLU, fluorescence trace: 164.035 RLU
Time (s) 32.781 (TCA, TLCA: 32.782)
  RLU, fluorescence trace: 242.016 RLU
Time (s) 34.781 (TCA, TLCA: 34.782)
  RLU, fluorescence trace: 272.716 RLU
Time (s) 36.781 (TCA, TLCA: 36.782)
  RLU, fluorescence trace: 320.809 RLU
Time (s) 38.781 (TCA, TLCA: 38.782)
  RLU, fluorescence trace: 384.052 RLU
Time (s) 40.781 (TCA, TLCA: 40.782)
  RLU, fluorescence trace: 404.135 RLU
Time (s) 42.781 (TCA, TLCA: 42.782)
  RLU, fluorescence trace: 433.94 RLU
Time (s) 44.781 (TCA, TLCA: 44.782)
  RLU, fluorescence trace: 475.477 RLU
Time (s) 46.781 (TCA, TLCA: 46.782)
  RLU, fluorescence trace: 493.347 RLU
Time (s) 48.781 (TCA, TLCA: 48.782)
  RLU, fluorescence trace: 501.503 RLU
Time (s) 50.781 (TCA, TLCA: 50.782)
  RLU, fluorescence trace: 547.521 RLU
Time (s) 52.781 (TCA, TLCA: 52.782)
  RLU, fluorescence trace: 553.791 RLU
Time (s) 54.781 (TCA, TLCA: 54.782)
  RLU, fluorescence trace: 588.235 RLU
Time (s) 56.781 (TCA, TLCA: 56.782)
  RLU, fluorescence trace: 548.835 RLU
Time (s) 58.781 (TCA, TLCA: 58.782)
  RLU, fluorescence trace: 588.475 RLU
Time (s) 60.781 (TCA, TLCA: 60.782)
  RLU, fluorescence trace: 601.608 RLU
Time (s) 62.781 (TCA, TLCA: 62.782)
  RLU, fluorescence trace: 626.215 RLU
Time (s) 64.781 (TCA, TLCA: 64.782)
  RLU, fluorescence trace: 626.188 RLU
Time (s) 66.781 (TCA, TLCA: 66.782)
  RLU, fluorescence trace: 619.641 RLU
Time (s) 68.781 (TCA, TLCA: 68.782)
  RLU, fluorescence trace: 624.108 RLU
Time (s) 70.781 (TCA, TLCA: 70.782)
  RLU, fluorescence trace: 638.032 RLU
Time (s) 72.781 (TCA, TLCA: 72.782)
  RLU, fluorescence trace: 646.123 RLU
Time (s) 74.781 (TCA, TLCA: 74.782)
  RLU, fluorescence trace: 657.793 RLU
Time (s) 76.781 (TCA, TLCA: 76.782)
  RLU, fluorescence trace: 666.37 RLU
Time (s) 78.781 (TCA, TLCA: 78.782)
  RLU, fluorescence trace: 678.287 RLU
Time (s) 80.781 (TCA, TLCA: 80.782)
  RLU, fluorescence trace: 665.284 RLU
Time (s) 82.781 (TCA, TLCA: 82.782)
  RLU, fluorescence trace: 655.873 RLU
Time (s) 84.781 (TCA, TLCA: 84.782)
  RLU, fluorescence trace: 679.941 RLU
Time (s) 86.781 (TCA, TLCA: 86.782)
  RLU, fluorescence trace: 648.406 RLU
Time (s) 88.781 (TCA, TLCA: 88.782)
  RLU, fluorescence trace: 644.228 RLU
Time (s) 90.781 (TCA, TLCA: 90.782)
  RLU, fluorescence trace: 650.88 RLU
Time (s) 92.781 (TCA, TLCA: 92.782)
  RLU, fluorescence trace: 631.638 RLU
Time (s) 94.781 (TCA, TLCA: 94.782)
  RLU, fluorescence trace: 665.026 RLU
Time (s) 96.781 (TCA, TLCA: 96.782)
  RLU, fluorescence trace: 673.234 RLU
Time (s) 98.781 (TCA, TLCA: 98.782)
  RLU, fluorescence trace: 653.956 RLU
Time (s) 100.781 (TCA, TLCA: 100.782)
  RLU, fluorescence trace: 661.771 RLU
Time (s) 102.781 (TCA, TLCA: 102.782)
  RLU, fluorescence trace: 636.296 RLU
Time (s) 104.781 (TCA, TLCA: 104.782)
  RLU, fluorescence trace: 641.127 RLU
Time (s) 106.781 (TCA, TLCA: 106.782)
  RLU, fluorescence trace: 615.791 RLU
Time (s) 108.781 (TCA, TLCA: 108.782)
  RLU, fluorescence trace: 618.091 RLU
Time (s) 110.781 (TCA, TLCA: 110.782)
  RLU, fluorescence trace: 644.691 RLU
Time (s) 112.781 (TCA, TLCA: 112.782)
  RLU, fluorescence trace: 640.87 RLU
Time (s) 114.781 (TCA, TLCA: 114.782)
  RLU, fluorescence trace: 609.041 RLU
Time (s) 116.781 (TCA, TLCA: 116.782)
  RLU, fluorescence trace: 616.307 RLU
Time (s) 118.781 (TCA, TLCA: 118.782)
  RLU, fluorescence trace: 584.502 RLU
Time (s) 120.781 (TCA, TLCA: 120.782)
  RLU, fluorescence trace: 602.866 RLU
Time (s) 122.781 (TCA, TLCA: 122.782)
  RLU, fluorescence trace: 581.164 RLU
Time (s) 124.781 (TCA, TLCA: 124.782)
  RLU, fluorescence trace: 578.218 RLU
Time (s) 126.781 (TCA, TLCA: 126.782)
  RLU, fluorescence trace: 564.916 RLU
Time (s) 128.781 (TCA, TLCA: 128.782)
  RLU, fluorescence trace: 590.827 RLU
Time (s) 130.781 (TCA, TLCA: 130.782)
  RLU, fluorescence trace: 571.073 RLU
Time (s) 132.781 (TCA, TLCA: 132.782)
  RLU, fluorescence trace: 555.387 RLU
Time (s) 134.781 (TCA, TLCA: 134.782)
  RLU, fluorescence trace: 548.858 RLU
Time (s) 136.781 (TCA, TLCA: 136.782)
  RLU, fluorescence trace: 535.742 RLU
Time (s) 137.547
  RLU, fluorescence trace: 524.559 RLU
Time (s) 143.547
  RLU, fluorescence trace: 525.352 RLU
Time (s) 149.547
  RLU, fluorescence trace: 486.955 RLU
Time (s) 155.547
  RLU, fluorescence trace: 493.52 RLU
Time (s) 161.547
  RLU, fluorescence trace: 446.448 RLU
Time (s) 167.547
  RLU, fluorescence trace: 435.019 RLU
Time (s) 173.547
  RLU, fluorescence trace: 386.716 RLU
Time (s) 179.547
  RLU, fluorescence trace: 393.434 RLU
Time (s) 185.547
  RLU, fluorescence trace: 372.463 RLU
Time (s) 191.547
  RLU, fluorescence trace: 357.243 RLU
Time (s) 197.547
  RLU, fluorescence trace: 314.74 RLU
Time (s) 203.547
  RLU, fluorescence trace: 318.63 RLU
Time (s) 209.547
  RLU, fluorescence trace: 306.856 RLU
Time (s) 215.547
  RLU, fluorescence trace: 260.931 RLU
Time (s) 221.547
  RLU, fluorescence trace: 241.962 RLU
Time (s) 227.547
  RLU, fluorescence trace: 290.972 RLU
Time (s) 233.547
  RLU, fluorescence trace: 269.304 RLU
Time (s) 239.547
  RLU, fluorescence trace: 267.596 RLU
Time (s) 245.547
  RLU, fluorescence trace: 219.689 RLU
Time (s) 293.547
  RLU, fluorescence trace: 189.99 RLU
Time (s) 299.547
  RLU, fluorescence trace: 175.107 RLU
Time (s) 305.547
  RLU, fluorescence trace: 192.603 RLU
Time (s) 311.547
  RLU, fluorescence trace: 188.074 RLU
Time (s) 317.547
  RLU, fluorescence trace: 199.388 RLU
Time (s) 323.547
  RLU, fluorescence trace: 170.101 RLU
Time (s) 329.547
  RLU, fluorescence trace: 196.926 RLU
Time (s) 335.547
  RLU, fluorescence trace: 162.738 RLU
Time (s) 341.547
  RLU, fluorescence trace: 164.861 RLU
Time (s) 347.547
  RLU, fluorescence trace: 156.987 RLU
Time (s) 353.547
  RLU, fluorescence trace: 175.115 RLU
Time (s) 359.547
  RLU, fluorescence trace: 151.684 RLU
Lowest concentration with significantly increased fluorescence vs empty vector (p < 0.01)
  Activation threshold concentration TAS2R4: 100 µM
